Measurements from ChEMBL document CHEMBL1201862, “PubChem BioAssay data set” (2004).
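Method: 48-hour compound exposure of cells in 96-well plates, five concentrations, linear interpolation of endpoints. GI50 marks 50% less growth.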 The source made the active and inactive calls. Cut-off read from the data, not from the text of the source: active = GI50 up to about 1.1 µM and inactive = higher.

How the values were obtained:
Assay in all cases: inhibition of tumour cell growth, NCI panel, 48 h
SNB-75 = tested on: SNB-75
M14 = tested on: M14
OVCAR-3 = tested on: OVCAR-3
HCC 2998 = tested on: HCC 2998
SK-MEL-2 = tested on: SK-MEL-2
786-0 = tested on: 786-0
SF-539 = tested on: SF-539
HL-60 = tested on: HL-60
CAKI-1 = tested on: CAKI-1
HT-29 = tested on: HT-29
A498 = tested on: A498
MDA-N = tested on: MDA-N
TK-10 = tested on: TK-10
ACHN = tested on: ACHN
NCI-H460 = tested on: NCI-H460
IGROV-1 = tested on: IGROV-1
HCT-116 = tested on: HCT-116
HOP-62 = tested on: HOP-62
K562 = tested on: K562

| SMILES | GI50 (SNB-75) | GI50 (M14) | GI50 (OVCAR-3) | GI50 (HCC 2998) | GI50 (SK-MEL-2) | GI50 (786-0) | GI50 (SF-539) | GI50 (HL-60) | GI50 (CAKI-1) | GI50 (HT-29) | GI50 (A498) | GI50 (MDA-N) | GI50 (TK-10) | GI50 (ACHN) | GI50 (NCI-H460) | GI50 (IGROV-1) | GI50 (HCT-116) | GI50 (HOP-62) | GI50 (K562) |
| --- | --- | --- | --- | --- | --- | --- | --- | --- | --- | --- | --- | --- | --- | --- | --- | --- | --- | --- | --- |
| COc1ccc(C2=C(N)c3ccccc3C2=O)cc1 | 27.7 µM (inactive) | > 100 µM (inactive) | > 100 µM (inactive) | > 100 µM (inactive) | > 100 µM (inactive) | 52.1 µM (inactive) | 40.9 µM (inactive) | > 100 µM (inactive) | > 100 µM (inactive) | > 100 µM (inactive) | 81.8 µM (inactive) | > 100 µM (inactive) | 45.1 µM (inactive) | 63.2 µM (inactive) | > 100 µM (inactive) | 89.7 µM (inactive) | 87.5 µM (inactive) | 31.2 µM (inactive) |  |
| NC(Cc1ccccc1)c1nn[nH]n1 (stereo not given) | > 100 µM (inactive) | > 100 µM (inactive) | > 100 µM (inactive) |  | > 100 µM (inactive) | > 100 µM (inactive) | > 100 µM (inactive) | > 100 µM (inactive) | > 100 µM (inactive) | > 100 µM (inactive) | > 100 µM (inactive) | > 100 µM (inactive) | > 100 µM (inactive) | > 100 µM (inactive) | > 100 µM (inactive) | > 100 µM (inactive) | > 100 µM (inactive) | > 100 µM (inactive) | 0.0476 µM (active) |
| COc1cc(C(=O)Oc2ccc3c(c2)OCO3)cc(OC)c1OC | > 100 µM (inactive) | > 100 µM (inactive) | > 100 µM (inactive) | > 100 µM (inactive) | > 100 µM (inactive) | > 100 µM (inactive) | > 100 µM (inactive) | > 100 µM (inactive) | > 100 µM (inactive) | > 100 µM (inactive) | > 100 µM (inactive) | > 100 µM (inactive) | > 100 µM (inactive) | > 100 µM (inactive) | > 100 µM (inactive) | > 100 µM (inactive) |  | > 100 µM (inactive) |  |
| CC1=C(C(=O)NNC(=O)CC#N)CC(C(=O)NNC(=O)CC#N)=C(C)N1 | > 100 µM (inactive) | > 100 µM (inactive) | > 100 µM (inactive) | > 100 µM (inactive) | > 100 µM (inactive) | > 100 µM (inactive) | > 100 µM (inactive) | 82.6 µM (inactive) | > 100 µM (inactive) | > 100 µM (inactive) | > 100 µM (inactive) | > 100 µM (inactive) | > 100 µM (inactive) | > 100 µM (inactive) | > 100 µM (inactive) | > 100 µM (inactive) | > 100 µM (inactive) | > 100 µM (inactive) |  |
| C=C(C)C12OC1[C@@]1(C)C(=CC2=O)CCC(O)[C@@H]1C (stereo not given in full) | 3.42 µM (inactive) | 3.72 µM (inactive) | 3.68 µM (inactive) | 0.718 µM (active) | 2.34 µM (inactive) | 1.64 µM (inactive) | 1.97 µM (inactive) | 1.16 µM (inactive) | 0.398 µM (active) | 1.21 µM (inactive) | 5.19 µM (inactive) | 2.68 µM (inactive) | 3.73 µM (inactive) | 0.417 µM (active) | 0.743 µM (active) | 0.891 µM (active) | 1.15 µM (inactive) | 1.4 µM (inactive) |  |
| O=c1c(-c2ccccc2)nnc2n(Cc3ccccc3)c3ccccc3n12 | > 100 µM (inactive) | > 100 µM (inactive) |  | > 100 µM (inactive) | > 100 µM (inactive) | > 100 µM (inactive) | 94.8 µM (inactive) | > 100 µM (inactive) | > 100 µM (inactive) | > 100 µM (inactive) | > 100 µM (inactive) | > 100 µM (inactive) | > 100 µM (inactive) | > 100 µM (inactive) | > 100 µM (inactive) | > 100 µM (inactive) | > 100 µM (inactive) |  |  |
